Experimental findings from ChEMBL document CHEMBL1146869 (Bioorg Med Chem Lett, 2006) are described below.

pIC50: −log10 of the molar value. Values after ≈ are worked out from the molar mass of the structure shown.

In data set [1] the test system is Rattus norvegicus. The data set is described as follows: Gastric toxicity in rat at 20 mg/kg, iv. It is filed as organism-based. More on the design: dose 20 mg/kg, route intravenous. Conditions: in vivo; call rule not given here.
The test system of data set [2] is Rattus norvegicus. The data set is described as follows: Gastric toxicity in rat at 40 mg/kg, iv. It is filed as organism-based. On the set-up: dose 40 mg/kg, route intravenous. Conditions: in vivo.
Data set [3] concerns Rattus norvegicus. The data set is described as follows: Anti-inflammatory activity against carrageenan-induced paw edema in Sprague-Dawley rat at 3 mg/kg, iv after 3 hrs. In kind it is functional, organism-based. More on the design: dose 3 mg/kg, route intravenous. (In the carrageenan paw model, swelling and tenderness develop within hours.)
In data set [4] the test system is Rattus norvegicus. The data set is described as follows: Anti-inflammatory activity against carrageenan-induced paw edema in Sprague-Dawley rat at 3 mg/kg, iv after 5 hrs. More on the design: dose 3 mg/kg, route intravenous. In kind it is functional, organism-based.
Data set [5] deals with T1, Prostaglandin G/H synthase 1 (Ovis aries, UniProt P05979).
T1 sequence (P05979 whole entry): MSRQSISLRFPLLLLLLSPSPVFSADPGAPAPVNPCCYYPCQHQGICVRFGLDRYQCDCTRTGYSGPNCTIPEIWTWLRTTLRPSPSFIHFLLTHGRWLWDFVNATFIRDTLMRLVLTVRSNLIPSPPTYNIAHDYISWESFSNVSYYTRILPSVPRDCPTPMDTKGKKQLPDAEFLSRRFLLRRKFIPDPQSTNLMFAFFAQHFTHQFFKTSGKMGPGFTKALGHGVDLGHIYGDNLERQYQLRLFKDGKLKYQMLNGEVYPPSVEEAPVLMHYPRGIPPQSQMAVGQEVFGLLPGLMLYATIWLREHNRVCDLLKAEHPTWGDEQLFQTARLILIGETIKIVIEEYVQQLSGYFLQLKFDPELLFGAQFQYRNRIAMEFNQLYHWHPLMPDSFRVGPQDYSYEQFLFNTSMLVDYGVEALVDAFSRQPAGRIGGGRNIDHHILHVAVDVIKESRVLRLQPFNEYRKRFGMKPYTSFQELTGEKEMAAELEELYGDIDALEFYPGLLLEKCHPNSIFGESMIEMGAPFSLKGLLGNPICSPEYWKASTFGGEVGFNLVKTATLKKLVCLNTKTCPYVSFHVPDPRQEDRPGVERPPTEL
The data set is described as follows: Inhibition of COX1. On the set-up: species or system Homo sapiens.

Data set [6] addresses T2, Prostaglandin G/H synthase 2 (Homo sapiens, UniProt P35354).
T2 sequence (P35354 whole entry): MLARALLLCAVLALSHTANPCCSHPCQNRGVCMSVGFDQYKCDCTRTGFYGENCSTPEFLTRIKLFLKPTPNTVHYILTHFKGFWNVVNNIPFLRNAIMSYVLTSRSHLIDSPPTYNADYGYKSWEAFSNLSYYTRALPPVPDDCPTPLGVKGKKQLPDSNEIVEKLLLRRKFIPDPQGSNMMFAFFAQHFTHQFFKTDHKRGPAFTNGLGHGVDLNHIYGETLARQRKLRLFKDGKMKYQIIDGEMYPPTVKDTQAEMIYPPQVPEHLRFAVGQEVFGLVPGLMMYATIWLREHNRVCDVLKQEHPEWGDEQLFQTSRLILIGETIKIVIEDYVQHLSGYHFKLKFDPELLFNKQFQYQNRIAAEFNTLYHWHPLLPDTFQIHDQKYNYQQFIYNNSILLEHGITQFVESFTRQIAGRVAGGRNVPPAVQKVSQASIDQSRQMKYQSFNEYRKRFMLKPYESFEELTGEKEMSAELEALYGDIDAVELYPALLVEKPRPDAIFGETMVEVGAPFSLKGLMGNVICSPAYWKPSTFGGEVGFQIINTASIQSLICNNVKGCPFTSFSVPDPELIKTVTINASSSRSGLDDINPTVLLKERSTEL

The nature of data set [7]: Aqueous solubility of the compound. In kind it is physicochemical. The following applies: water.

In the case of `O=C([O-])Cc1ccccc1Nc1c(Cl)cccc1Cl.[Na+]` [DICLOFENAC SODIUM], the Activity in data set [1] is on record as 22.8; in data set [2], 51.5.

Regarding `CCC(=O)[N-]S(=O)(=O)c1ccc(-c2c(-c3ccccc3)noc2C)cc1.[Na+]` [PARECOXIB SODIUM], the inhibition in vivo at 3 mg/kg in data set [3] was 62.8%; in data set [4] it was 42%. The Activity entry in data set [2] is reported as “Not Active”.

With `Cc1ccc(-c2cc(C(F)(F)F)nn2-c2ccc(-c3nnn[nH]3)cc2)cc1`, the figures for the negative logarithm of the IC50 (pIC50) in data set [5] and in data set [6] were 8.39 and 8.72, respectively. Further, the inhibition in vivo at 3 mg/kg turned out to be 40.2% in data set [3] and 34.7% in data set [4]. The Activity result in data set [1] was “Not Active”. The compound further registered a solubility in data set [7] of 100 mg/mL (≈ 270 mM).

For the compound `O=C1OCC(c2ccc(-c3nn[nH]n3)cc2)=C1c1ccccc1`, the values for the negative-log IC50 (pIC50) in data set [5] and in data set [6] were 8.42 and 8.74, respectively. Also, the results for the inhibition in vivo at 3 mg/kg in data set [3] and in data set [4] were 34.1% and 28%, respectively. Also, in data set [1], the Activity entry is on record as “Not Active”. Besides, in data set [7], the concentration in solution (solubility) came to 125 mg/mL (≈ 411 mM).

The term inhibition in vivo denotes the relative decrease from the control value, in per cent. Higher therefore signals strong suppression. One may read the pIC50 as the negative decadic logarithm of the IC50, by convention in mol/L. Lower therefore signals a large IC50. Broadly, the solubility is how much of the substance goes into solution per volume.
